The text below walks through data of patent US20060034911A1, “New oral immediated release dosage form” (priority 2002, published 2006).

Data set [1] is described as follows: Plasma elimination half-life in man. Format: in vivo. Particulars: human, read-out: plasma elimination half-life, t1/2 (converted).

In general, solubility refers to the dissolved amount per volume that the medium holds. Read a high solubility as much dissolved substance. Turning to `Br.Cc1ccc(N2CCN(C)CC2)c2c1CC[C@@H](NC(=O)c1ccc(N3CCOCC3)cc1)C2` [(R)-N-[5-methyl-8-(4-methylpiperazin-1-yl)-1,2,3,4-tetrahydro-2-naphthyl]-4-morpholinobenzamide monohydrobromide], in data set [1], the half-life was 35 h. In addition, the solubility in the data set “physchem” (0.1 M HCl, simulated gastric fluid) was 11 mg/mL; in the data set “physchem” (ethanol/water 1:1, aqueous with cosolvent or surfactant or cyclodextrin), 19 mg/mL; in the data set “physchem” (water), 6.4 mg/mL.
